Test results taken from US5536491A, “^19 F poly aza macrocyclic MRI contrast medium” (Terumo Kabushiki Kaisha, priority 1993, dated 1996).

Key:
[1] = Measurement of imaging sensitivity (phantom experiment), 19F MRI; set-up: key to detectability as image at 500 mM / detectability as image at 100 mM / detectability as image at 50 mM / detectability as image at 10 mM / detectability as image at 5 mM / detectability as image at 1 mM / detectability as image at 500 μM / detectability as image at 100 μM: .smallcircle.: detectable as clear image; Δ: margially detectable as image; x: undetectable; conditions: 1.5 T; for detectability as image at 100 μM / detectability as image at 500 μM / detectability as image at 1 mM / detectability as image at 5 mM / detectability as image at 10 mM / detectability as image at 50 mM / detectability as image at 100 mM / detectability as image at 500 mM: 20 min, complexes GRASS TR 10/TE 2 msec, 5-FU spin echo TR 4500/TE 100 msec
Protocol: Measurement of imaging sensitivity (phantom experiment)
Each of metal complex solution with various concentration of the present invention was sealed in cylindrical acryl phantom with an inner diameter of 1 cm and a height of 10 cm and subject to imaging. SIGNA (1.5 T) available from GE was used as an MRI apparatus, and imaging was performed by using a surface coil 13 cm in diameter for fluorine. A GRASS method was used as a pulse sequence and measurement condition was as followed:
TR (repetition time)=10 msec;
The measurement was performed for 20 min., and the number of acquisition was 937. As references, alkaline aqueous solutions of 5-fluorouracil with various concentrations were imaged by an identical apparatus. […] The imaging time was 20 min., and the number of acquisition was twice. […] In contrast, each metal complex compound of the present […] of 0.5 mM to 5 mM.

[2] = Measurement of relaxation time (T1 and T2 of intramolecular fluorine atoms) by 90 MHz NMR; assay type: physicochemical; set-up: unit not given here; conditions: 10mM aqueous solution

Row | Molecule | detectability as image at 100 μM [1] | detectability as image at 500 μM [1] | detectability as image at 1 mM [1] | detectability as image at 5 mM [1] | detectability as image at 10 mM [1] | detectability as image at 50 mM [1] | detectability as image at 100 mM [1] | detectability as image at 500 mM [1] | concentration required for detection as a clear image ([1]; 20 min imaging) [mM] | T1 [2] | T2 [2]
1 | O=c1[nH]cc(F)c(=O)[nH]1 [Compound 5-FU, 5-fluorouracil, reference compound] | x | x | x | x | x | Δ | Δ | .smallcircle. | ≥ 500 |  | 
2 | O=C(O)CN1CCCN(CC(=O)O)CCN(Cc2ccc(C(F)(F)F)cc2)CCCN(CC(=O)O)CC1.[Gd] [Compound-3] | x | x | Δ | Δ | .smallcircle. | .smallcircle. | .smallcircle. | .smallcircle. |  |  | 
3 | O=C(O)CN1CCCN(CC(=O)O)CCN(Cc2cc(C(F)(F)F)cc(C(F)(F)F)c2)CCCN(CC(=O)O)CC1.[Gd] [Compound-4, gadolinium complex of 1-[3,5-bis(trifluoromethyl)benzyl]-,1,4,8,11-tetraazacyclotetradecane-4,8,11-triacetic acid] | x | Δ | .smallcircle. | .smallcircle. | .smallcircle. | .smallcircle. | .smallcircle. | .smallcircle. |  | 2.16 | 1.82
4 | O=C(O)CN1CCCN(Cc2cc(C(F)(F)F)cc(C(F)(F)F)c2)CCN(CC(=O)O)CCCN(Cc2cc(C(F)(F)F)cc(C(F)(F)F)c2)CC1.[Gd] [Compound-5] | x | Δ | .smallcircle. | .smallcircle. | .smallcircle. | .smallcircle. | .smallcircle. | .smallcircle. |  |  | 
5 | O=C(O)CN1CCN(CC(=O)O)CCN(Cc2cc(C(F)(F)F)cc(C(F)(F)F)c2)CCN(CC(=O)O)CC1.[Gd] [Compound-8, gadolinium complex of 1-[3,5-bis(trifluoromethyl)benzyl]1,4,7,10-tetraazacyclododecane-4,7,10-triacetic acid] |  |  |  |  |  |  |  |  |  | 2.11 | 1.79
6 | O=C(O)CN1CCCN(CC(=O)O)CCN(Cc2ccc(C(C(F)(F)F)(C(F)(F)F)C(F)(F)F)cc2)CCCN(CC(=O)O)CC1.[Gd] [Compound-10, gadolinium complex of 1-[4-[tris(trifluoromethyl)methyl]benzyl]-1,4,8,11-tetraazacyclotetradecane-4,8,11-triacetic acid] |  |  |  |  |  |  |  |  |  | 3.27 | 2.83
7 | O=C(O)CN1CCCN(CC(=O)O)CCN(Cc2ccc(/C=C/c3cc(C(F)(F)F)cc(C(F)(F)F)c3)cc2)CCCN(CC(=O)O)CC1.[Gd] [Compound-13, gadolinium complex of 1-[4-[2-trans-(3,5-bis(trifluoromethyl)phenyl)vinyl]benzyl]-1,4,8,11-tetraazacyclotetradecane-4,8,11-triacetic acid] | x | x | Δ | .smallcircle. | .smallcircle. | .smallcircle. | .smallcircle. | .smallcircle. |  | 12.6 | 9.31
8 | O=C(O)CN1CCCN(CC(=O)O)CCN(CC(=O)O)CCCN(CCN(Cc2cc(C(F)(F)F)cc(C(F)(F)F)c2)Cc2cc(C(F)(F)F)cc(C(F)(F)F)c2)CC1.[Gd] [Compound-20, gadolinium complex of 1-[N""',N""'-bis[3,5-bis(trifluoromethyl)benzyl]aminoethyl]-1,4,8,11-tetraazacyclotetradecane-4,8,11-triacetic acid] | Δ | Δ | .smallcircle. | .smallcircle. | .smallcircle. | .smallcircle. | .smallcircle. | .smallcircle. |  |  | 
9 | O=C(O)CN1CCCN(CC(=O)O)CCN(Cc2cc(C(F)(F)F)cc(C(F)(F)F)c2)CCCN(CC(=O)O)CC1.[Cu] [Compound-23, copper complex of 1-[3,5-bis(trifluoromethyl)benzyl]-1,4,8,11-tetraazacyclotetradecane-4,8,11-triacetic acid] | x | x | Δ | .smallcircle. | .smallcircle. | .smallcircle. | .smallcircle. | .smallcircle. |  | 36.5 | 24.9
10 | O=C([O-])CN1CCCN(CC(=O)[O-])CCN(Cc2cc(C(F)(F)F)cc(C(F)(F)F)c2)CCCN(CC(=O)[O-])CC1.[Cr+3] [Compound-24, chromium complex of 1-[3,5-bis(trifluoromethyl)benzyl]-1,4,8,11-tetraazacyclotetradecane-4,8,11-triacetic acid] |  |  |  |  |  |  |  |  |  | 15.5 | 10.4
11 | gadolinium complex of 1-[N""'-[3,5-bis(trifluoromethyl)benzyl]aminoethyl]-1,4,8,11-tetraazacyclotetradecane-4,8,11-triacetic acid [Compound-21] |  |  |  |  |  |  |  |  |  | 6.34 | 4.21
12 | gadolinium complex with 1-(2,2,2-trifluoroethyl)-1,4,8,11-tetraazacyclodecane-4,8,11-tetraacetic acid [Compound-1] |  |  |  |  |  |  |  |  |  | 1.73 | 1.58
